Results taken from paper PMC7377239, “Cardiovascular Effects of Polychlorinated Biphenyls and Their Major Metabolites” (Environmental Health Perspectives, 2020).
Structures can show the parent of a compound that is named as a salt. Where two headings read alike, the source gives them in different places.

System: iCell cardiomyocytes (human iPSC-derived cardiomyocytes)
Test: Intracellular Ca2+ flux / beating parameters in iCell cardiomyocytes (FLIPR tetra), 90 min or 24 h
Assay type: cell-based
Conditions: Homo sapiens, Cardiomyocyte, 0.00 µM = 100.00; for activity at 0.1 µM: 0.10 µM
Protocol: Details on cardiomyocyte cell culture are described in detail elsewhere ([Grimm et al. 2015b]; [Sirenko et al. 2013a]). Briefly, tissue-culture treated 384 well plates were gelatinized with 25μL per well of 0.1% (w/v) gelatin in water for 2 h at 37°C and 5% CO2 . Individual vials of cells were thawed for 4 min in a water bath maintained at 37°C. Thawed cells were resuspended in 10ml plating medium containing 1:500 (vol/vol) penicillin/streptomycin solution at room temperature (RT). Live cell counts for each cell suspension were determined by trypan blue staining and cells were further diluted to provide final cell densities of 2×10^5 viable cells/ml. Thus, 5,000 cells suspended in 25μL media were transferred per well after the gelatin solution had been discarded. Cell culture plates were rested for 30 min at RT before they were incubated for 48 h at 37°C and 5% CO2 . Then, a media exchange with 30μL of fresh maintenance medium containing 1:500 (vol/vol) penicillin/streptomycin solution was performed, and cell media were subsequently changed every 48 h for 12 d. On the experiment day, the medium was completely exchanged with either 25μL (for Ca^2+ flux assay) or 40μL (for imaging) of fresh medium.
Responses of iCell®-cardiomyocytes to drugs and chemicals were evaluated using intracellular Ca^2+ flux measurements ([Grimm et al. 2015b]; [Sirenko et al. 2013b]). For experiments, 20 mM stock solutions of PCBs and PCB metabolites were prepared in DMSO ( 200× ). Chemical working solutions ( 5× ) were prepared using cardiomyocyte maintenance medium and contained 2.5% (vol/vol) DMSO. These chemical master plates were prepared to include all chemicals in concentration–response (0.05, 0.5, 5, 50, and 500μM ). Negative controls included media-only and vehicle control (i.e., 0.5% vol/vol DMSO in cell culture media) wells. Positive assay controls were consistent with previously published reports ([Grimm et al. 2018]) and included TAB ( 50μM ) as a cytotoxic control, and isoproterenol ( 0.1–10μM ), propranolol ( 0.1–5 μM ), cisapride ( 0.01–1μM ), and doxorubicin ( 0.1–5μM ) as chemicals associated with specific effects on beating and ion flux. Each test chemical was screened in triplicate for each concentration.
Experiments started with the addition of 25μL of prewarmed 2× concentrated calcium dye reagent to sample wells containing 25μL maintenance media. Microplates were then acclimated for 2 h at 37°C. Following equilibration, cardiomyocyte sample wells were treated simultaneously by the addition of 12.5μL of prewarmed 5× chemical solution to iCell®-cardiomyocytes using the automated liquid handler in the FLIPR tetra (Molecular Devices). Treated cell cultures were incubated for either 90 min or 24 h. After the conclusion of the treatment period, the Ca^2+ flux was measured for 100 s at a frequency of 8 Hz using the integrated fluorescence plate reader in the FLIPR tetra (Molecular Devices) using an emission wavelength range of λemission=515–575 nm ( λexcitation=470–495 nm ). Additional instrument settings included exposure time per read of 0.05s, a gain of 2000, an excitation intensity of 30%, and an internal temperature of 37°C.
Ca^2+ flux data were processed in R studio (version 1.0.136, with R version 3.3.2; R Development Core Team) as described elsewhere ([Blanchette et al. 2019]; [Burnett et al. 2019]). Calculated quantitative metrics included the means and coefficients of variation (CV) of the peak height, which can be indicative of cytotoxicity, inhibition, or stimulation of beating. Means of peak frequency, an indicator of positive or negative […], and CV of peak spacing, an indicator of irregular beating, were also derived from Ca^2+ flux traces. Finally, the mean ratio of the decay over rise time was calculated. Increases in the decay/rise time ratio are reflective of delayed repolarization and are a measure for QT prolongation. […]

[1] = 1.5 h, read-out: cm.amp.avg.90min
[2] = 1.5 h, read-out: cm.amp.cv.90min
[3] = 1.5 h, read-out: cm.decay.rise.90min
[4] = 1.5 h, read-out: cm.spacing.cv.90min
[5] = 24 h, read-out: cm.amp.avg.24hrs
[6] = 24 h, read-out: cm.amp.cv.24hrs
[7] = 24 h, read-out: cm.decay.rise.24hrs
[8] = 24 h, read-out: cm.spacing.cv.24hrs

SMILES: O=S(=O)(O)Oc1cc(Cl)ccc1-c1ccccc1 [2-yl PCB 3 sulfate]
- activity at 0.01 µM [1]: 107%
- activity at 0.01 µM [2]: 102%
- activity at 0.01 µM (1.5 h, read-out: cm.bpm.90min): 99.1%
- activity at 0.01 µM [3]: 97.6%
- activity at 0.01 µM [4]: 134%
- activity at 0.1 µM [1]: 107%
- activity at 0.1 µM [2]: 90.3%
- activity at 0.1 µM (1.5 h, read-out: cm.bpm.90min): 97.8%
- activity at 0.1 µM [3]: 94.2%
- activity at 0.1 µM [4]: 100%
- activity at 1 µM [1]: 102%
- activity at 1 µM [2]: 102%
- activity at 1 µM (1.5 h, read-out: cm.bpm.90min): 96.5%
- activity at 1 µM [3]: 99.3%
- activity at 1 µM [4]: 99.6%
- activity at 10 µM [1]: 106%
- activity at 10 µM [2]: 107%
- activity at 10 µM (1.5 h, read-out: cm.bpm.90min): 96.5%
- activity at 10 µM [3]: 97.2%
- activity at 10 µM [4]: 90.8%
- activity at 100 µM [1]: 114%
- activity at 100 µM [2]: 117%
- activity at 100 µM (1.5 h, read-out: cm.bpm.90min): 84%
- activity at 100 µM [3]: 100%
- activity at 100 µM [4]: 99%
- activity at 0.01 µM [5]: 117%
- activity at 0.01 µM [6]: 119%
- activity at 0.01 µM (24 h, read-out: cm.bpm.24hrs): 111%
- activity at 0.01 µM [7]: 86.8%
- activity at 0.01 µM [8]: 109%
- activity at 0.1 µM [5]: 63.4%
- activity at 0.1 µM [6]: 37.6%
- activity at 0.1 µM (24 h, read-out: cm.bpm.24hrs): 53.5%
- activity at 0.1 µM [7]: 43.6%
- activity at 0.1 µM [8]: 50.5%
- activity at 1 µM [5]: 0%
- activity at 1 µM [6]: 0%
- activity at 1 µM (24 h, read-out: cm.bpm.24hrs): 0%
- activity at 1 µM [7]: 0%
- activity at 1 µM [8]: 0%
- activity at 10 µM [5]: 121%
- activity at 10 µM [6]: 81.4%
- activity at 10 µM (24 h, read-out: cm.bpm.24hrs): 92.6%
- activity at 10 µM [7]: 98.1%
- activity at 10 µM [8]: 91.4%
- activity at 100 µM [5]: 97.7%
- activity at 100 µM [6]: 85.5%
- activity at 100 µM (24 h, read-out: cm.bpm.24hrs): 77.3%
- activity at 100 µM [7]: 106%
- activity at 100 µM [8]: 86.6%
